Reference: PMC7914897, “Cytotoxic Potential of a-Azepano- and 3-Amino-3,4-SeCo-Triterpenoids” (International Journal of Molecular Sciences, 2021)
Like-named read-outs stand apart in the source and are kept apart here.

Key:
HS 578T (Breast cancer) = assay: NCI-60 screen (SRB, 48 h); settings: Homo sapiens; for IC (TGI): 48 h, read-out: TGI; for CC50: read-out: LC50
[1] = system: A549/ATCC (NSC lung cancer); assay: NCI-60 screen (SRB, 48 h); settings: Homo sapiens; for GI50: A549; for IC (TGI): A549, 48 h, read-out: TGI; for CC50: A549, read-out: LC50
[2] = system: MDA-MB-31/ATCC (Breast cancer); assay: NCI-60 screen (SRB, 48 h); settings: Homo sapiens; for IC (TGI): 48 h, read-out: TGI; for CC50: read-out: LC50
SK-MEL-2 (Melanoma) = assay: NCI-60 screen (SRB, 48 h); settings: Homo sapiens; for GI50: SK-MEL-2; for IC (TGI): SK-MEL-2, 48 h, read-out: TGI; for CC50: SK-MEL-2, read-out: LC50
PC-3 (Prostate cancer) = assay: NCI-60 screen (SRB, 48 h); settings: Homo sapiens; for GI50: PC-3; for IC (TGI): PC-3, 48 h, read-out: TGI; for CC50: PC-3, read-out: LC50
HCT-15 (Colon cancer) = assay: NCI-60 screen (SRB, 48 h); settings: Homo sapiens; for GI50: HCT-15; for IC (TGI): HCT-15, 48 h, read-out: TGI; for CC50: HCT-15, read-out: LC50
[3] = system: NCI/ADR-RES (Ovarian cancer); assay: NCI-60 screen (SRB, 48 h); settings: Homo sapiens; for IC (TGI): 48 h, read-out: TGI
MALME-3M (Melanoma) = assay: NCI-60 screen (SRB, 48 h); settings: Homo sapiens; for IC (TGI): 48 h, read-out: TGI
[4] = system: NIH 3T3 (non-malignant mouse fibroblasts); assay: SRB cytotoxicity assay, 72 h; assay type: cell-based; settings: NIH 3T3, 72 h, cut-off 30 µM
In short: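 Cells seeded, treated 24 h later with serial dilutions (0–30 µM; DMSO ≤0.5%) for 72 h. TCA-fixed, SRB-stained, absorbance read at 570 nm; survival relative to untreated controls gives EC50.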

KM12 (Colon cancer) = assay: NCI-60 screen (SRB, 48 h); settings: Homo sapiens; for GI50: KM12; for IC (TGI): KM12, 48 h, read-out: TGI
UACC-62 (Melanoma) = assay: NCI-60 screen (SRB, 48 h); settings: Homo sapiens; for GI50: UACC-62; for IC (TGI): UACC-62, 48 h, read-out: TGI; for CC50: UACC-62, read-out: LC50
U251 (CNS cancer) = assay: NCI-60 screen (SRB, 48 h); settings: Homo sapiens; for GI50: U-251; for IC (TGI): U-251, 48 h, read-out: TGI; for CC50: U-251, read-out: LC50
IGROV1 (Ovarian cancer) = assay: NCI-60 screen (SRB, 48 h); settings: for GI50 / IC (TGI) / CC50: Homo sapiens; for GI50: IGROV-1; for IC (TGI): IGROV-1, 48 h, read-out: TGI; for CC50: IGROV-1, read-out: LC50
HCT-116 (Colon cancer) = assay: NCI-60 screen (SRB, 48 h); settings: Homo sapiens; for GI50: HCT-116; for activity at 10 µM / IC (TGI): HCT-116, 48 h; for activity at 10 µM: read-out: Growth % of the Most Sensitive Cell Lines; for IC (TGI): read-out: TGI
SNB-19 (CNS cancer) = assay: NCI-60 screen (SRB, 48 h); settings: Homo sapiens; for GI50: SNB-19; for IC (TGI): SNB-19, 48 h, read-out: TGI
Leukemia subpanel = assay: cells; settings: Homo sapiens; for IC (TGI): 48 h, read-out: TGI MG_MID; for GI50: read-out: GI50 MG_MID; for CC50: read-out: LC50 MG_MID
K-562 (Leukemia) = assay: NCI-60 screen (SRB, 48 h); settings: Homo sapiens; for GI50: K562
TK-10 (Renal cancer) = assay: NCI-60 screen (SRB, 48 h); settings: Homo sapiens; for GI50: TK-10; for IC (TGI): TK-10, 48 h, read-out: TGI; for CC50: TK-10, read-out: LC50
LOX IMVI (Melanoma) = assay: NCI-60 screen (SRB, 48 h); assay type: cell-based; settings: Homo sapiens; for IC (TGI) / activity at 10 µM: 48 h; for activity at 10 µM: 1 dose 10 µM, read-out: Growth % of the Most Sensitive Cell Lines; for GI50: read-out: GI50
SN12C (Renal cancer) = assay: NCI-60 screen (SRB, 48 h); settings: Homo sapiens; for IC (TGI): 48 h, read-out: TGI; for CC50: read-out: LC50
Prostate cancer subpanel = assay: NCI-60 screen, subpanel; settings: Homo sapiens; for IC (TGI): 48 h, read-out: TGI MG_MID; for GI50: read-out: GI50 MG_MID; for CC50: read-out: LC50 MG_MID
MCF7 (Breast cancer) = assay: NCI-60 screen (SRB, 48 h); settings: Homo sapiens; for GI50: MCF7; for IC (TGI): MCF7, 48 h, read-out: TGI; for CC50: MCF7, read-out: LC50
RXF 393 (Renal cancer) = assay: NCI-60 screen (SRB, 48 h); settings: for GI50 / IC (TGI) / CC50: Homo sapiens; for GI50: RXF 393; for IC (TGI): RXF 393, 48 h, read-out: TGI; for CC50: RXF 393, read-out: LC50

SMILES: CC1(C)CC[C@]23CC[C@]4(C)[C@H](CC[C@@H]5[C@@]6(C)CCCNC(C)(C)[C@@H]6CC[C@]54C)[C@H]2[C@H]1OC3 [Compound 7, Azepanoallobetulin]
- GI50 (HS 578T (Breast cancer)): 1.96 µM
- IC (TGI) (HS 578T (Breast cancer)): 4.69 µM
- CC50 (HS 578T (Breast cancer)): 2.44 µM
- GI50 [1]: 1.81 µM
- IC (TGI) [1]: 3.43 µM
- CC50 [1]: 6.5 µM
- GI50 [2]: 1.66 µM
- IC (TGI) [2]: 3.2 µM
- CC50 [2]: 6.17 µM
- GI50 (SK-MEL-2 (Melanoma)): 1.95 µM
- IC (TGI) (SK-MEL-2 (Melanoma)): 4.09 µM
- CC50 (SK-MEL-2 (Melanoma)): 8.57 µM
- GI50 (PC-3 (Prostate cancer)): 1.61 µM
- IC (TGI) (PC-3 (Prostate cancer)): 3.17 µM
- CC50 (PC-3 (Prostate cancer)): 6.25 µM
- GI50 (HCT-15 (Colon cancer)): 1.31 µM
- IC (TGI) (HCT-15 (Colon cancer)): 2.68 µM
- CC50 (HCT-15 (Colon cancer)): 5.47 µM
- GI50 [3]: 1.78 µM
- IC (TGI) [3]: 3.59 µM
- GI50 (MALME-3M (Melanoma)): 1.79 µM
- IC (TGI) (MALME-3M (Melanoma)): 3.47 µM
- CC50 (MALME-3M (Melanoma); read-out: LC50): 6.72 µM
- EC50 [4]: n.s.
- GI50 (KM12 (Colon cancer)): 1.86 µM
- IC (TGI) (KM12 (Colon cancer)): 3.44 µM
- GI50 (UACC-62 (Melanoma)): 1.79 µM
- IC (TGI) (UACC-62 (Melanoma)): 3.21 µM
- CC50 (UACC-62 (Melanoma)): 5.77 µM
- GI50 (U251 (CNS cancer)): 1.74 µM
- IC (TGI) (U251 (CNS cancer)): 3.23 µM
- CC50 (U251 (CNS cancer)): 5.98 µM
- GI50 (IGROV1 (Ovarian cancer)): 1.79 µM
- IC (TGI) (IGROV1 (Ovarian cancer)): 3.48 µM
- CC50 (IGROV1 (Ovarian cancer)): 6.78 µM
- GI50 (HCT-116 (Colon cancer)): 1.52 µM
- activity at 10 µM (HCT-116 (Colon cancer)): -99.4%
- IC (TGI) (HCT-116 (Colon cancer)): 2.88 µM
- CC50 (HCT-116 (Colon cancer); HCT-116, read-out: LC50): 5.47 µM
- GI50 (SNB-19 (CNS cancer)): 1.85 µM
- IC (TGI) (SNB-19 (CNS cancer)): 3.35 µM
- CC50 (SNB-19 (CNS cancer); SNB-19, read-out: LC50): 6.07 µM
- IC (TGI) (Leukemia subpanel): 5.49 µM
- GI50 (Leukemia subpanel): 1.96 µM
- CC50 (Leukemia subpanel): 94.3 µM
- GI50 (K-562 (Leukemia)): 1.96 µM
- IC (TGI) (K-562 (Leukemia); K562, 48 h, read-out: TGI): 7 µM
- CC50 (K-562 (Leukemia); K562, read-out: LC50): > 100 µM
- GI50 (TK-10 (Renal cancer)): 1.89 µM
- IC (TGI) (TK-10 (Renal cancer)): 3.61 µM
- CC50 (TK-10 (Renal cancer)): 6.91 µM
- IC (TGI) (LOX IMVI (Melanoma)): 3.08 µM
- activity at 10 µM (LOX IMVI (Melanoma)): -94.9%
- GI50 (LOX IMVI (Melanoma)): 1.6 µM
- GI50 (SN12C (Renal cancer)): 1.68 µM
- IC (TGI) (SN12C (Renal cancer)): 3.2 µM
- CC50 (SN12C (Renal cancer)): 6.1 µM
- IC (TGI) (Prostate cancer subpanel): 3.2 µM
- GI50 (Prostate cancer subpanel): 1.67 µM
- CC50 (Prostate cancer subpanel): 6.12 µM
- GI50 (MCF7 (Breast cancer)): 1.44 µM
- IC (TGI) (MCF7 (Breast cancer)): 3.01 µM
- CC50 (MCF7 (Breast cancer)): 6.3 µM
- GI50 (RXF 393 (Renal cancer)): 1.56 µM
- IC (TGI) (RXF 393 (Renal cancer)): 2.98 µM
- CC50 (RXF 393 (Renal cancer)): 5.69 µM

SMILES: C=C(C)[C@@H]1CCC=C2CC[C@]3(C)[C@H](CC[C@@H]4[C@@]5(C)CCCNC(C)(C)[C@@H]5CC[C@]43C)[C@H]21 [Compound 8]
- GI50 (HS 578T (Breast cancer)): 1.87 µM
- IC (TGI) (HS 578T (Breast cancer)): 4.39 µM
- CC50 (HS 578T (Breast cancer)): 15.9 µM
- GI50 [1]: 2.02 µM
- IC (TGI) [1]: 3.73 µM
- CC50 [1]: 6.89 µM
- GI50 [2]: 1.81 µM
- IC (TGI) [2]: 3.35 µM
- CC50 [2]: 6.2 µM
- GI50 (SK-MEL-2 (Melanoma)): 2.01 µM
- IC (TGI) (SK-MEL-2 (Melanoma)): 3.69 µM
- CC50 (SK-MEL-2 (Melanoma)): 6.8 µM
- GI50 (PC-3 (Prostate cancer)): 1.65 µM
- IC (TGI) (PC-3 (Prostate cancer)): 3.06 µM
- CC50 (PC-3 (Prostate cancer)): 5.68 µM
- GI50 (HCT-15 (Colon cancer)): 1.44 µM
- IC (TGI) (HCT-15 (Colon cancer)): 2.84 µM
- CC50 (HCT-15 (Colon cancer)): 5.59 µM
- GI50 [3]: 1.98 µM
- IC (TGI) [3]: 3.8 µM
- CC50 ([3]; read-out: LC50): 7.3 µM
- GI50 (MALME-3M (Melanoma)): 1.7 µM
- IC (TGI) (MALME-3M (Melanoma)): 3.46 µM
- EC50 ([4]; Mus musculus, NIH3T3, read-out: EC50): 2.41 ± 0.5 µM
- GI50 (KM12 (Colon cancer)): 1.93 µM
- IC (TGI) (KM12 (Colon cancer)): 3.6 µM
- CC50 (KM12 (Colon cancer); KM12, read-out: LC50): 6.71 µM
- GI50 (UACC-62 (Melanoma)): 1.73 µM
- IC (TGI) (UACC-62 (Melanoma)): 3.16 µM
- CC50 (UACC-62 (Melanoma)): 5.76 µM
- GI50 (U251 (CNS cancer)): 1.76 µM
- IC (TGI) (U251 (CNS cancer)): 3.26 µM
- CC50 (U251 (CNS cancer)): 6.07 µM
- GI50 (IGROV1 (Ovarian cancer)): 1.69 µM
- IC (TGI) (IGROV1 (Ovarian cancer)): 3.28 µM
- CC50 (IGROV1 (Ovarian cancer)): 6.35 µM
- Growth % of the Most Sensitive Cell Lines (IGROV1 (Ovarian cancer); IGROV1, 1 dose 10 µM): −94.22%
- GI50 (HCT-116 (Colon cancer)): 1.37 µM
- activity at 10 µM (HCT-116 (Colon cancer)): -96.2%
- IC (TGI) (HCT-116 (Colon cancer)): 2.82 µM
- GI50 (SNB-19 (CNS cancer)): 1.93 µM
- IC (TGI) (SNB-19 (CNS cancer)): 3.44 µM
- IC (TGI) (Leukemia subpanel): 5.18 µM
- GI50 (Leukemia subpanel): 1.48 µM
- CC50 (Leukemia subpanel): > 100 µM
- GI50 (K-562 (Leukemia)): 0.32 µM
- GI50 (TK-10 (Renal cancer)): 1.88 µM
- IC (TGI) (TK-10 (Renal cancer)): 3.45 µM
- CC50 (TK-10 (Renal cancer)): 6.32 µM
- IC (TGI) (LOX IMVI (Melanoma)): 3.16 µM
- activity at 10 µM (LOX IMVI (Melanoma)): -99.5%
- GI50 (LOX IMVI (Melanoma)): 1.67 µM
- GI50 (SN12C (Renal cancer)): 1.79 µM
- IC (TGI) (SN12C (Renal cancer)): 3.31 µM
- CC50 (SN12C (Renal cancer)): 6.12 µM
- IC (TGI) (Prostate cancer subpanel): 3.2 µM
- GI50 (Prostate cancer subpanel): 1.71 µM
- CC50 (Prostate cancer subpanel): 5.97 µM
- GI50 (MCF7 (Breast cancer)): 1.37 µM
- IC (TGI) (MCF7 (Breast cancer)): 2.92 µM
- CC50 (MCF7 (Breast cancer)): 6.22 µM
- GI50 (RXF 393 (Renal cancer)): 1.74 µM
- IC (TGI) (RXF 393 (Renal cancer)): 3.32 µM
- CC50 (RXF 393 (Renal cancer)): 6.33 µM
- Growth % of the Most Sensitive Cell Lines (RXF 393 (Renal cancer); RXF 393, 1 dose 10 µM): −91.86%
